{"source": "patent US20190358264A1", "about": "“METHODS OF TREATING DISEASES ASSOCIATED WITH ILC2 CELLS” (Limm Therapeutics, SA, priority 2016, published 2019)", "assay_type_in_all_cases": "cell-based, mouse", "key": {"[1]": {"system": "ERK1/2", "assay": "ERK phosphorylation in purified ILC2s activated with NmU23", "conditions": "NmU23 100 ng/mL, 10 minutes, with IL-2 and IL-7", "description": "Purified ILC2s from small intestine and lung were FBS starved for 2 hours before in vitro activation with NmU23 at 37° C. To test for ERK phosphorylation (Cell Signaling Technology), purified ILC2s were activated with NmU23 (100 ng/mL; Phoenix pharmaceuticals) in the presence of IL-2 and IL-7 (10 ng/mL; Peprotech) for 10 minutes prior to intracellular staining. To test ERK, calcineurin and NFAT activation, ILC2s were cultured for 1 hour with their respective inhibitor and then stimulated with NmU23 overnight before mRNA expression analysis. ERK inhibitor—PD98059 (Sigma); Calcineurin inhibitor—FK506 (Tocris Bioscience); NFAT inhibitor—11R-VIVIT (Tocris Bioscience)."}, "[2]": {"system": "ILC2s", "assay": "In vitro activation of purified ILC2s, type 2 cytokine protein by intracellular staining", "conditions": "purified ILC2s, Nmur1 competent vs deficient; NMUR1-dependent", "description": "(§1) FIGS. 10a-10d: FIG. 10a, Ki67 expression in intestinal ILC2s after an overnight in vitro stimulation with NmU23 alone (100 ng/mL, Phoenix Pharmaceutical) or NmU23 together with the survival cytokines Interleukin (IL)-2 and/or IL-7 (10 ng/mL). FIG. 10b, Ki67 expression in intestine ILC2 after in vivo administration of NmU23 (4 g/day during 2 days). n=5. FIG. 10c, ILC2-derived type 2 cytokines (IL-5, IL-13 and Amphiregulin (Areg)) in sorted intestine ILC2 after an overnight stimulation with NmU23, mouse recombinant IL-25 or IL-33 (R&D) (10, 50 and 100 ng/mL). Negative control: unstimulated ILC2, Positive control: ILC2 activated with phorbol 12-myristate 13-acetate (PMA, 50 ng/ml) plus ionomycin (500 ng/ml). n=3. FIG. 10d, Dot plots representative of the cytokine production with increasing dose of NmU23, rIL-25 and rIL-33. *P<0.05; **P<0.01; ***P<0.001; ****P<0.0001; ns not significant.\nFor in vitro experiments, purified lung and small intestine lamina propria ILC2s were FBS starved for 2 hours prior to stimulation and cultured in complete RPMI (supplemented with 10% foetal bovine serum (FBS), 1% hepes, sodium pyruvate, glutamine, streptomycin and penicillin) at 37° C. For mRNA analysis, ILC2s were stimulated overnight with recombinant mouse Neuromedin U 23 peptide (NmU23, 100 ng/mL; Phoenix pharmaceuticals). Both NmU23-stimulated and control ILC2s were cultured in the presence of IL-2 and IL-7 (10 ng/mL; Peprotech). ILC2s were lysed using RLT buffer (Qiagen). For cytokine protein analysis, ILC2s were incubated exclusively with brefeldin A (eBioscience) for 12 hours prior to intracellular staining. For in vivo experiments, B6 mice were injected intraperitoneal with NmU23 peptide (2 g/day) during Nippostrongylus brasiliensis infection or with a single dose of NmU23 (20 μg) and analyzed after 8 hours. Control mice were treated with PBS alone.\nIntracellular staining was performed using IC fixation/permeabilization kit (eBioscience). Flow cytometry analysis and cell sorting were performed using BD LSRFORTESSA and BD FACSAria flow cytometers (BD Biosciences). […]"}, "[3]": {"system": "intestinal ILC2s", "assay": "Ki67 expression in intestinal ILC2s after in vitro stimulation with NmU23", "conditions": "NmU23 100 ng/mL overnight", "description": "as §1\nFor in vitro experiments, purified lung and small intestine lamina propria ILC2s were FBS starved for 2 hours prior to stimulation and cultured in complete RPMI (supplemented with 10% foetal bovine serum (FBS), 1% hepes, sodium pyruvate, glutamine, streptomycin and penicillin) at 37° C. […] For in vivo experiments, B6 mice were injected intraperitoneal with NmU23 peptide (2 g/day) during Nippostrongylus brasiliensis infection or with a single dose of NmU23 (20 μg) and analyzed after 8 hours. […]"}}, "data": [{"substance": "recombinant mouse Neuromedin U 23 peptide (FKAEYQSPSVGQSKGYFLFRPRN; listed as Mus musculus) [NmU23, NMUR1 agonist neuropeptide, Phoenix pharmaceuticals]", "values": [{"measurement": "ERK1/2 activation (pERK) in ILC2s", "setting": "[1]", "result": "immediate and efficient ERK1/2 activation"}, {"measurement": "expression of the type 2 cytokine proteins IL-5 and IL-13 in ILC2s", "setting": "[2]", "result": "potent expression"}, {"measurement": "ILC2 proliferation as measured by Ki67, in vitro", "setting": "[3]", "result": "increased ILC2 proliferation"}]}]}
